The source of these data is patent publication US20070082952A1, “Pharmaceutical compositions, methods of preparation thereof, and methods of treatment” (priority 2005, published 2007).

Data set [1] in a line: Dissolution, USP method 2 (paddles at 75 rpm, 0.025 M NaH2PO4 with 2% SDS, pH 6.8). The note with it: 2×100 mg, pH 6.8, paddles 75 rpm. It is filed as physicochemical. The method, then: Dissolution of the wet granulation tablets of Example 1 and the dry formulation capsules of Example 2 was determined using USP method 2 (paddles at 75 rpm, 0.025 M NaH2PO4 with 2% sodium dodecyl sulfate (SDS), pH 6.8).

A short description of another data set: aqueous solubility. Type of data set: physicochemical. An excerpt: An obstacle to the use of 3-biphenyl-4-yl-(2S)-[(4′-trifluoromethyl-biphenyl-4-carbonyl)-amino]-propionic acid in certain pharmacological forms is its aqueous solubility (less than 0.5 micrograms/milliliter (μg/mL)), which may make the bioavailability of biphenyl-4-yl-(2S)-[(4′-trifluoromethyl-biphenyl-4-carbonyl)-amino]-propionic acid lower than desirable. A composition of the present invention, having an increased dissolution rate, advantageously enhances the bioavailability of 3-biphenyl-4-yl-(2S)-[(4′-trifluoromethyl-biphenyl-4-carbonyl)-amino]-propionic acid, particularly when dosed orally.

On to `O=C(N[C@@H](Cc1ccc(-c2ccccc2)cc1)C(=O)O)c1ccc(-c2ccc(C(F)(F)F)cc2)cc1` [3-biphenyl-4-yl-(2S)-[(4′-trifluoromethyl-biphenyl-4-carbonyl)-amino]-propionic acid], for which the “Percent 3-Biphenyl-4-yl-(2S)-[(4′-trifluoromethyl-biphenyl-4-carbonyl)-amino]-propionic acid Dissolved” value came out at 0% in data set [1] (Time 0 min); 43.2% in data set [1] (Time 15 min); 57.0% in data set [1] (Time 30 min); 67.3% in data set [1] (Time 45 min); 73.9% in data set [1] (Time 60 min). For the same compound, in “aqueous solubility”, the aqueous solubility result was “less than 0.5 μg/mL”.
